Reference: a melting point compilation (Tetko et al.; mined from patent text by program, amines drawn as free bases though some values may be those of a salt)

Compared with `CCC1Oc2ccc(CN3CCN(c4ccncc4)CC3)cc2NC1=O` (stereo not drawn), `CCN(CC)CCCCC1CCN(CCNC(=O)N2c3cc(Cl)ccc3C(=O)Nc3cccnc32)CC1` is higher in melting point: 113 to 128 °C for the first, 157 °C for the second.

First: Cc1cc(Oc2cc(C(F)(F)F)nn2C)nc(C(=O)Nc2ccc(F)cc2)c1
Second: CC(C)CCOC(=O)C(C)Oc1cc(-c2nn(C)c(C(F)(F)F)c2Cl)c(F)cc1Cl (stereo not drawn)
The melting point of the first is higher: 133 °C for the first, 128 °C for the second.

First: O=C(NC1CCCCC1)c1c(O)c2cc(F)ccc2n(Cc2ccccc2)c1=O
Second: Cc1nc(N2CCCC(Cc3cccnc3)C2=O)sc1C(=O)NCc1ccccc1 (stereo not drawn)
The melting point of the first is lower: 130 to 134 °C for the first, 140 to 141 °C for the second.

First: COC(C)c1cc(N2C(=O)C3=C(CCCC3)C2=O)c(F)cc1Cl (stereo not drawn)
Second: C#CCN1C(=O)CCc2cc(F)c(-n3nc4ccc(Cl)cn4c3=O)cc21
The melting point of the first is lower: 141 to 144 °C for the first, 200 to 202 °C for the second.

First: CC(C)(C)c1nc(C(N)=S)ncc1O
Second: CN1CC(O)N(c2cc(C(C)(C)C)on2)C1=O (stereo not drawn)
The melting point of the first is lower: 169 to 171 °C for the first, 173 to 177 °C for the second.

First: Nc1ncccc1-c1nc2cc(Br)cnc2n1-c1ccc(CNC(=O)c2ccccc2)cc1
Second: O=C(c1cc(Cc2ccccc2)cc(Cn2ccnc2)c1)c1cc(Cl)c2cccnc2c1O
The melting point of the first is higher: 195 to 197 °C for the first, 148 to 150 °C for the second.

Compared with `OCC(CBr)(CBr)CBr`, `CCCCCCCCCCc1nnnn1CC(=O)O` is higher in melting point: 67 to 69 °C for the first, 104 to 106 °C for the second.

Compared with `c1ncc2ncncc2n1`, `O=C(O)c1cnc(-c2nnn[nH]2)c2ccccc12` is higher in melting point: 124 to 126 °C for the first, 292 °C for the second.

First: COc1ccc(C=CC(=O)N2CCOCC2)cc1C(F)F
Second: COC(=O)C=Cc1ccc(-c2ccccc2C(F)(F)F)c(C(F)(F)F)c1
The melting point of the first is higher: 119 °C for the first, 97 to 98 °C for the second.

First: COc1cc(COc2nn(-c3ccccc3)cc2C#N)ccc1OCc1nc(-c2ccccc2)oc1C
Second: Cc1oc(-c2ccccc2)nc1Cc1cc2cc(CCCC3OC(=O)NC3=O)ccc2o1 (stereo not drawn)
The melting point of the first is lower: 174 to 175 °C for the first, 184 to 185 °C for the second.

Compared with `CC(C)c1cc(C(=O)Nc2cc(F)c(C(=O)O)c(F)c2)sc1C(C)C`, `CCOC(=O)C1=COc2cc(C(C)(C)C)c(OC(C)=O)cc2O1` is lower in melting point: 218 to 219 °C for the first, 144 °C for the second.

First: O=c1cc2c(n[nH]1)CCc1cc(O)ccc1-2
Second: NN=C1CCc2ccccc21
The melting point of the first is higher: over 300 °C for the first, 84 to 86 °C for the second.

Compared with `CC(C)CCCC(C)C1CCC2C3CC=C4CC(NC(=O)CCNC(=O)CCCCCNc5ccc([N+](=O)[O-])cc5[N+](=O)[O-])CCC4(C)C3CCC12C` (stereo not drawn), `Cc1ccc(C(=O)OC2CCC3(C)C(=CCC4C3CCC3(C)C(=NO)CCC43)C2)cc1` (stereo not drawn) is lower in melting point: 197 to 198 °C for the first, 135 to 139 °C for the second.

First: CCOC(=O)CCc1ccc2c(c1)CC(NC(=O)OC(C)(C)C)CC2 (stereo not drawn)
Second: CCOC(=O)CCc1oc2cccc(O)c2c1C
The melting point of the first is higher: 100 to 102 °C for the first, 61 to 63 °C for the second.

First: O=c1ccc(-c2c(-c3ccccc3)nn3ccccc23)nn1Cc1nccs1
Second: COc1ccc(-c2cc(=O)n(Cc3ccccc3)nc2-c2ccc(OC)cc2)cc1
The melting point of the first is lower: 130 to 132 °C for the first, 145 to 146 °C for the second.

First: CC(C)c1ccc(N(C)C(=O)Cn2cnc3c2c(=O)n(C)c(=O)n3C)cc1
Second: CN(C)C(=O)C(C)(C)n1ccc(-c2cc(Cl)ccc2Cl)n1
The melting point of the first is higher: 231 to 233 °C for the first, 94 to 96 °C for the second.

First: Cc1nnc(C(=O)CCCCCCOc2ccccc2)o1
Second: CCCCOC(=O)Cc1nc(-c2ccccc2)oc1-c1ccsc1
The melting point of the first is higher: 75 to 77 °C for the first, 71 to 72 °C for the second.

Compared with `CCc1nc2c(OCc3ccccc3)cc(C(=O)N(C)C)cc2n1C`, `O=C(CBr)Nc1c(C(F)(F)F)cc(OCc2ccccc2)cc1C(F)(F)F` is higher in melting point: 104 to 108 °C for the first, 173 to 175 °C for the second.

Compared with `COc1ccc(C=CC(=O)CC(=O)C=Cc2ccc(OC)cc2)cc1`, `COc1ccc(CCCC(CCc2ccc(OC)cc2)C(=O)O)cc1` (stereo not drawn) is lower in melting point: 154 to 155 °C for the first, 91 to 94 °C for the second.

First: COc1cc(Nc2c(C#N)cnc3cc(-c4csc(CN5CCN(C)CC5)c4)ccc23)c(Cl)cc1Cl
Second: COc1ccc2c(Nc3ccc4cn[nH]c4c3)c(C#N)cnc2c1
The melting point of the first is lower: 206 to 209 °C for the first, over 250 °C for the second.

Compared with `CC1CN(C)N(c2cc(Cl)cc(Cl)c2)C(=O)N1` (stereo not drawn), `O=Cc1cc(Oc2c(Cl)cc(-n3ncc(=O)[nH]c3=O)cc2Cl)ccc1O` is higher in melting point: 129 to 130 °C for the first, 146 to 150 °C for the second.

Compared with `Cc1cnc(CCCCNc2ncc(Cc3ccc(C)nc3)c(=O)[nH]2)c(N)c1`, `CCOc1nn(-c2ccc(C(F)(F)F)cn2)cc1CCCOc1ccc(CCC(=O)O)cc1OC(C)C` is higher in melting point: 86 to 89 °C for the first, 93 to 94 °C for the second.

Compared with `COc1cc2c(Cl)nc(-c3ccc(Cl)cc3)nc2c(OC)c1OC`, `CC(=O)n1nc(-c2ccc(Cl)cc2)nc1C` is lower in melting point: 159 °C for the first, 132 to 133 °C for the second.

First: CCOC(=O)/C(=N/OC)c1ccc(OCCOc2ccc3ccccc3c2)s1
Second: CNCCOc1ccc(C(=C(c2ccccc2)C(F)(F)F)c2ccc(OCOC)cc2)cc1
The melting point of the first is higher: 132 to 134 °C for the first, 87 to 90 °C for the second.

First: CN(C)C=C1CSc2ccc(Cl)cc2C1=O
Second: Cc1ccccc1-c1cn(C)cc(-c2cccc(Cl)c2)c1=O
The melting point of the first is lower: 126 to 127 °C for the first, 171 to 173 °C for the second.

Compared with `COc1ccc(-c2cnc(N)c(Br)n2)cc1`, `CCc1nc2c(N)nc3cc(OCC(=O)c4ccsc4)ccc3c2s1` is higher in melting point: 166 to 170 °C for the first, 202 to 203 °C for the second.

First: O=C(Nc1ccc2[nH]c(=O)oc2c1)C(=O)N1CCC(Oc2ccc(Cl)cc2)CC1
Second: Cc1ccc(OC2CCN(C(=O)C(=O)Nc3ccc4[nH]c(=O)oc4c3)CC2)cc1
The melting point of the first is higher: 242 to 244 °C for the first, 203 °C for the second.

First: CCc1nc2c(N)nc3cc(OCCCOc4ccc5c(c4)nc(N)c4nc(CC)sc45)ccc3c2s1
Second: COc1cccc(CC(=O)O)c1OCCCc1cc(OC(C)C)nn1Cc1c(F)cccc1Cl
The melting point of the first is higher: 242 to 243 °C for the first, 97 to 98 °C for the second.

First: Cc1cn2cccc(OCc3c(Cl)ccc(S(=O)(=O)N4CCC[C@H]4C(=O)NCCCNC(=O)c4ccc(C=NN)cc4)c3Cl)c2n1
Second: Cc1cc(-n2ccnc2)c2cccc(OCc3c(Cl)ccc(S(=O)(=O)N4CCC[C@H]4C(=O)NCC4CCN(C(=O)c5ccccc5)CC4)c3Cl)c2n1
The melting point of the first is higher: 120 to 125 °C for the first, 102 °C for the second.

First: CS(=O)(=O)Nn1c(=O)[nH]c2cc(C(F)(F)F)c(Oc3cccnc3)cc2c1=O
Second: CS(=O)(=O)c1ccc(-n2nc(C(F)(F)F)cc2-c2ccc(-c3ccsc3)cc2)cc1
The melting point of the first is higher: 194 to 196 °C for the first, 154 to 155 °C for the second.

First: c1ccc(N(c2ccccc2)c2ccc(-c3ccc(-c4ccnc(C5Cc6ccccc6N5)n4)cc3)cc2)cc1 (stereo not drawn)
Second: COC(=O)CCCc1ccc(CNC(=O)C2Cc3ccccc3N2S(=O)(=O)c2ccc(-c3cccc(C(F)(F)F)c3)cc2)cc1 (stereo not drawn)
The melting point of the first is higher: 247 to 248 °C for the first, 55 °C for the second.

First: COc1ccc2nc(NC(=O)C(CC3CCCC3)c3ccc(S(=O)(=O)NC4CC4)cc3)sc2n1 (stereo not drawn)
Second: Nc1ncc(-c2cnc3[nH]c(=O)n(CC4CCCCC4)c3n2)cn1
The melting point of the first is lower: 235 to 237 °C for the first, over 250 °C for the second.

First: COc1c(C)c(C)cc(C)c1C(O)(c1ccccc1)C(C)C (stereo not drawn)
Second: Cc1cc2c(s1)N(C(C)C)c1ccccc1N=C2N1CCN(C)CC1
The melting point of the first is lower: 80 to 81 °C for the first, 120 to 121 °C for the second.

Compared with `Cc1nn(C)c(F)c1C(=O)Nc1cccc2c1C(C)CC2(C)C` (stereo not drawn), `Cn1nc2c(-c3ccc(Cl)cc3Cl)cccc2c1C(=O)NCCO` is higher in melting point: 137 °C for the first, 188 to 190 °C for the second.

First: CCCCCCCCCCCCCCCCCCOc1ccc(C(=O)OCC)cc1[N+](=O)[O-]
Second: CCCCCCCCCCCCCc1c(C(F)(F)F)noc1NS(=O)(=O)c1ccc(-c2ccccc2)cc1
The melting point of the first is lower: 48 to 56 °C for the first, 115 to 116 °C for the second.

First: O=C1CC2(CCCC2)CC(=O)N1CCCCc1ccncc1
Second: CC(=O)OCCn1c(=O)oc(=O)c2ccccc21
The melting point of the first is higher: 155 to 157 °C for the first, 128 to 131 °C for the second.

Compared with `OCc1cc2ccsc2s1`, `CCOC(=O)c1cc2c(F)ccc(Br)c2s1` is lower in melting point: 85 to 87 °C for the first, 73 to 74 °C for the second.

Compared with `CCOC(=O)ONC(=N)c1cc(C(C)(C)C)c(OCOCCOC)c(C(C)(C)C)c1`, `CC(=O)Nc1nc(CCc2ccc(NC(=NC(=O)OC(C)(C)C)NC(=O)OC(C)(C)C)cc2)c(C(=O)O)s1` is higher in melting point: 115 to 117 °C for the first, 222 to 223 °C for the second.

First: CSc1ncncc1C1c2cc(C#N)ccc2CC1(C)C (stereo not drawn)
Second: Cc1ccc2c(c1)c(=O)c(-c1nnnn1C)cn2C
The melting point of the first is lower: 157 to 158 °C for the first, 281 to 282 °C for the second.

Compared with `CC(C)(C)c1cc(N=C2CCc3cc4c(nc32)C(=Nc2cc(C(C)(C)C)cc(C(C)(C)C)c2)CC4)cc(C(C)(C)C)c1`, `Nc1cc2c(cc1Oc1ccc(F)cc1)CCC2` is lower in melting point: 177 to 183 °C for the first, 123 °C for the second.

Compared with `COc1ccc(NC(=O)C2=C(O)c3ccccc3S(=O)(=O)N2C)c(=O)cc1`, `COC(=O)c1ccc(Cl)cc1NC(=O)CSc1ccccc1C(=O)O` is lower in melting point: 251 to 253 °C for the first, 207 to 209 °C for the second.

First: Cc1cccc(NC(=O)NCC(=O)N(CC(=O)N2CCC(C)(C)CC2)c2ccccc2)c1
Second: CC(C)[C@H](NC(=O)OCc1ccccc1)C(=O)NCc1ccccc1
The melting point of the first is higher: 205 °C for the first, 174 °C for the second.

Compared with `O=C(O)CC1c2ccccc2CCc2cc(Cl)ccc21` (stereo not drawn), `COc1cc(N)c(Cl)cc1C(=O)NCC1CCN(CCOCc2ccccc2)CC1` is lower in melting point: 142 to 146 °C for the first, 123 to 125 °C for the second.

Compared with `c1ccc(N2c3ccccc3C3CN(CC45CC6CC(CC(C6)C4)C5)CCC32)cc1` (single isomer, unassigned; (+)), `COC(=O)c1ccc2cc(-c3ccc(CO)c(C45CC6CC(CC(C6)C4)C5)c3)ccc2c1` is higher in melting point: 117 to 119 °C for the first, 212 °C for the second.

Compared with `N#Cc1cc(C#N)c(SC2SCC(O)C(O)C2O)c(C#N)c1` (stereo not drawn), `CC(=O)NNc1nc(O)nc(-c2ccc(Cl)cc2)n1` is higher in melting point: 86 to 96 °C for the first, 250 °C for the second.

First: CCOC(=O)Cc1c(-c2ccc(C)cc2)nn2cccnc12
Second: NC(=O)c1ncn2c(-c3ccc(Cl)c(Cl)c3)ccnc12
The melting point of the first is lower: 69 to 71.5 °C for the first, 302 to 304 °C for the second.

Compared with `CN=C(ON1C(=O)CCC1=O)c1ccccc1`, `CNCC1Oc2cc(F)cc(-c3ccccc3Cl)c2O1` (stereo not drawn) is higher in melting point: 119 to 120 °C for the first, 132 to 134 °C for the second.

First: Cc1c(C)c2c(c(C)c1O)SC(C)(C)O2
Second: CCCCc1c(Cl)nc(N)nc1-c1ccsc1
The melting point of the first is lower: 62 to 64.5 °C for the first, 154 to 155 °C for the second.

Compared with `CCCc1nc2cc(Cl)c(S(N)(=O)=O)cc2[nH]1`, `O=c1cc(-c2ccc(OC3CCN(C4CCC4)CC3)cc2)cn[nH]1` is higher in melting point: 230 to 234 °C for the first, 296 to 298 °C for the second.
